Consider 21 compounds from patent publication US12692254B2, “Benzimidazole inhibitors of PAD enzymes” (BRISTOL-MYERS SQUIBB COMPANY, priority 2018, dated 2026).

The target in this assay is human PAD4 (hPAD4) (Homo sapiens, UniProt Q9UM07). In words: RFMS human PAD4 functional assay (rapid-fire mass spectrum). It is filed as biochemical. The conditions noted are these: 5 nM hPAD4 enzyme, 250 μM BAEE, 50 μM Calcium; 30 min preincubation, 90 min reaction at 37° C. In a few lines: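 PAD4 (10 nM) preincubated 30 min with compound (top final 50 μM), then BAEE substrate added in pH 7.5 HEPES buffer with DTT, 50 μM calcium, TPEN; 90 min at 37° C. After TCA quench, citrulline derivatized with phenyl glyoxal (4 mM final, 30 min, 37° C) and quantified by RapidFire MS against internal standard.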
Sequence of human PAD4 (hPAD4) (Q9UM07 whole entry): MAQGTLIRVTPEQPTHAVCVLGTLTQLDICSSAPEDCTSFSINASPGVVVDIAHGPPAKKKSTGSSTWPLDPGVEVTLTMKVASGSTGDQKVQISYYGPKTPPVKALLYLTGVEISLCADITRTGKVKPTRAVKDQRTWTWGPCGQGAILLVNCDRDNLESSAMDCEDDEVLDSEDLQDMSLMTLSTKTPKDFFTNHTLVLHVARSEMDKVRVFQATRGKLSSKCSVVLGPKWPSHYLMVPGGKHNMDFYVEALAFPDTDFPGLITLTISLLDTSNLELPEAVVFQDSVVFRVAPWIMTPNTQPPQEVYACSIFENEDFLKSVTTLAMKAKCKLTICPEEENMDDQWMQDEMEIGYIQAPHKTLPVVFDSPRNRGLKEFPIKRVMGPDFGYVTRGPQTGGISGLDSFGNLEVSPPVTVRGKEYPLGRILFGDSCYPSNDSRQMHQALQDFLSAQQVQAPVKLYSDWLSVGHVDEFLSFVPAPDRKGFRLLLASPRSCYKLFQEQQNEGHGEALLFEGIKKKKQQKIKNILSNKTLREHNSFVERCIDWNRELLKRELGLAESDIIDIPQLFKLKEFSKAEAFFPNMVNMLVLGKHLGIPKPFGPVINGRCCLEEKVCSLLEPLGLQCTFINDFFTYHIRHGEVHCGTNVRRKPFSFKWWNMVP

In general, IC50 refers to the midpoint of a concentration-inhibition curve.

As for `COc1cc(C(=O)N2CC3CCC2[C@@H]3N)cc2nc(-c3cc4ccccc4n3CC3CC3)n(Cc3cnn(-c4ccc[n+]([O-])c4)c3)c12` (stereo partly drawn) [Example 396, 3-[4-({5-[(7R)-7-amino-2-azabicyclo[2.2.1]heptane-2-carbonyl]-2-[1-(cyclopropylmethyl)-1H-indol-2-yl]-7-methoxy-1H-1,3-benzodiazol-1-yl}methyl)-1H-pyrazol-1-yl]pyridin-1-ium-1-olate], the IC50 was found to be 51 nM.

`N#Cc1ccc(C(=O)N2CC(Cn3c(-c4cc5ccccc5n4CC4CC4)nc4cc(C(=O)N5C[C@H]6CC[C@@H]5[C@@H]6N)cc(F)c43)C2)cc1` [Example 92, 4-(3-((5-((1R,4R,7R)-7-amino-2-azabicyclo[2.2.1]heptane-2-carbonyl)-2-(1-(cyclopropylmethyl)-1H-indol-2-yl)-7-fluoro-1H-benzo[d]imidazol-1-yl)methyl)azetidine-1-carbonyl)benzonitrile]: the IC50 is 12 nM.

For the compound `COc1cc(C(=O)N2C[C@H](N)C[C@@H](F)C2)cc2nc(-c3cc4cccnc4n3CC3CC3)n(Cc3cn[nH]c3)c12` [Example 500, (3R,5R)-1-{2-[1-(cyclopropylmethyl)-1H-pyrrolo[2,3-b]pyridin-2-yl]-7-methoxy-1-[(1H-pyrazol-4-yl)methyl]-1H-1,3-benzodiazole-5-carbonyl}-5-fluoropiperidin-3-amine], the IC50 stood at 127 nM.

For `COc1nccc(N2CC(Cn3c(-c4cc5cccnc5n4CC4CC4)nc4cc(C(=O)N5C[C@H]6CC[C@@H]5[C@@H]6N)cc(OC)c43)C2)n1` [Example 20, (1R,4R,7R)-2-{2-[1-(cyclopropylmethyl)-1H-pyrrolo[2,3-b]pyridin-2-yl]-7-methoxy-1-{[1-(2-methoxypyrimidin-4-yl)azetidin-3-yl]methyl}-1H-1,3-benzodiazole-5-carbonyl}-2-azabicyclo[2.2.1]heptan-7-amine], the IC50 was 57 nM.

`COc1cc(C(=O)N2CC3CCC2[C@@H]3N)cc2nc(-c3cc4ccccc4n3CC3CC3)n(CCc3cn[nH]c3)c12` (stereo partly drawn) [Example 508, (7R)-2-{2-[1-(cyclopropylmethyl)-1H-indol-2-yl]-7-methoxy-1-[2-(1H-pyrazol-4-yl)ethyl]-1H-1,3-benzodiazole-5-carbonyl}-2-azabicyclo[2.2.1]heptan-7-amine]: the IC50 is 289 nM.

In the case of `COc1cc(C(=O)N2C[C@H]3CC[C@@H]2[C@@H]3N)cc2nc(-c3cc4ccc(Cl)cc4n3CC3CC3)n(CC3CN(c4cncc(C#N)c4)C3)c12` [Example 87, 5-[3-({5-[(1R,4R,7R)-7-amino-2-azabicyclo[2.2.1]heptane-2-carbonyl]-2-[6-chloro-1-(cyclopropylmethyl)-1H-indol-2-yl]-7-methoxy-1H-1,3-benzodiazol-1-yl}methyl)azetidin-1-yl]pyridine-3-carbonitrile], the IC50 turned out to be 2280 nM.

Regarding `COc1cc(C(=O)N2C[C@H]3CC[C@@H]2[C@@H]3N)cc2nc(-c3cc4cccnc4n3CC3CC3)n(CC3CN(C(=O)c4ccccc4)C3)c12` [Example 88, (1R,4R,7R)-2-{1-[(1-benzoylazetidin-3-yl)methyl]-2-[1-(cyclopropylmethyl)-1H-pyrrolo[2,3-b]pyridin-2-yl]-7-methoxy-1H-1,3-benzodiazole-5-carbonyl}-2-azabicyclo[2.2.1]heptan-7-amine], the IC50 was 21 nM.

Consider `COc1cc(C(=O)N2C[C@H]3CC[C@@H]2[C@@H]3N)cc2nc(-c3cc4ccccc4n3CC3CC3)n(CC3CN(C(=O)c4ccc(C#N)c(F)c4)C3)c12` [Example 135, 4-[3-({5-[(1R,4R,7R)-7-amino-2-azabicyclo[2.2.1]heptane-2-carbonyl]-2-[1-(cyclopropylmethyl)-1H-indol-2-yl]-7-methoxy-1H-1,3-benzodiazol-1-yl}methyl)azetidine-1-carbonyl]-2-fluorobenzonitrile], for which the IC50 came out at 8 nM.

In the case of `COc1cc(C(=O)N2CC3CCC2[C@@H]3N)cc2nc(-c3cc4ccccc4n3CC3CC3)n(Cc3cnn(-c4cc(F)cnc4O)c3)c12` (stereo partly drawn) [Example 376, 3-[4-({5-[(7R)-7-amino-2-azabicyclo[2.2.1]heptane-2-carbonyl]-2-[1-(cyclopropylmethyl)-1H-indol-2-yl]-7-methoxy-1H-1,3-benzodiazol-1-yl}methyl)-1H-pyrazol-1-yl]-5-fluoropyridin-2-ol], the IC50 is 37 nM.

For the compound `COc1cccc(-n2cc(Cn3c(-c4cc5cccnc5n4CC4CC4)nc4cc(C(=O)N5C[C@H](N)C[C@@H](F)C5)cc(OC)c43)cn2)n1` [Example 369, (3R,5R)-1-{2-[1-(cyclopropylmethyl)-1H-pyrrolo[2,3-b]pyridin-2-yl]-7-methoxy-1-{[1-(6-methoxypyridin-2-yl)-1H-pyrazol-4-yl]methyl}-1H-1,3-benzodiazole-5-carbonyl}-5-fluoropiperidin-3-amine], the IC50 is 29 nM.

Take `COc1cc(C(=O)N2C[C@H]3CC[C@@H]2[C@@H]3N)cc2nc(-c3cc4ccccc4n3CC3CC3)n(Cc3ccncc3)c12` [Example 272, (1R,4R,7R)-2-(2-[1-(cyclopropylmethyl)-1H-indol-2-yl]-7-methoxy-1-[(pyridin-4-yl)methyl]-1H-1,3-benzodiazole-5-carbonyl}-2-azabicyclo[2.2.1]heptan-7-amine]: the IC50 is 179 nM.

In the case of `COc1cc(C(=O)N2C[C@H]3CC[C@@H]2[C@@H]3N)cc2nc(-c3cc4ccccc4n3CC3CC3)n(CC3CN(C(=O)c4ccc(-c5ccc(O)cc5)cc4)C3)c12` [Example 149, 4′-[3-({5-[(1R,4R,7R)-7-amino-2-azabicyclo[2.2.1]heptane-2-carbonyl]-2-[1-(cyclopropylmethyl)-1H-indol-2-yl]-7-methoxy-1H-1,3-benzodiazol-1-yl}methyl)azetidine-1-carbonyl]-[1,1′-biphenyl]-4-ol], the 50% inhibitory concentration (IC50) is 19 nM.

On to `COc1cc(C(=O)N2C[C@H]3CC[C@@H]2[C@@H]3N)cc2nc(-c3cc4cc(Cl)ccc4n3C)n(CC3CN(c4cncc(C#N)c4)C3)c12` [Example 58, 5-[3-({5-[(1R,4R,7R)-7-amino-2-azabicyclo[2.2.1]heptane-2-carbonyl]-2-(5-chloro-1-methyl-1H-indol-2-yl)-7-methoxy-1H-1,3-benzodiazol-1-yl}methyl)azetidin-1-yl]pyridine-3-carbonitrile], for which the IC50 worked out at 169 nM.

As to `COc1cc(C(=O)N2C[C@H]3CC[C@@H]2[C@@H]3N)cc2nc(-c3cc4cccnc4n3CC3CC3)n(C3CN(c4cncc(C#N)c4)C3)c12` [Example 73, 5-(3-{5-[(1R,4R,7R)-7-amino-2-azabicyclo[2.2.1]heptane-2-carbonyl]-2-[1-(cyclopropylmethyl)-1H-pyrrolo[2,3-b]pyridin-2-yl]-7-methoxy-1H-1,3-benzodiazol-1-yl}azetidin-1-yl)pyridine-3-carbonitrile], the IC50 was determined as 149 nM.

With `COc1cc(C(=O)N2CC3CCC2[C@@H]3N)cc2nc(-c3cc4ccccc4n3CC3CC3)n(CCc3cnn(C)c3)c12` (stereo partly drawn) [Example 511, (7R)-2-{2-[1-(cyclopropylmethyl)-1H-indol-2-yl]-7-methoxy-1-[2-(1-methyl-1H-pyrazol-4-yl)ethyl]-1H-l,3-benzodiazole-5-carbonyl}-2-azabicyclo[2.2.1]heptan-7-amine], the 50% inhibitory concentration (IC50) is 338 nM.

As to `COc1nccc(N2CC(n3c(-c4cc5cccnc5n4CC4CC4)nc4cc(C(=O)N5C[C@H]6CC[C@@H]5[C@@H]6N)cc(OC)c43)C2)n1` [Example 71, (1R,4R,7R)-2-{2-[1-(cyclopropylmethyl)-1H-pyrrolo[2,3-b]pyridin-2-yl]-7-methoxy-1-[1-(2-methoxypyrimidin-4-yl)azetidin-3-yl]-1H-1,3-benzodiazole-5-carbonyl}-2-azabicyclo[2.2.1]heptan-7-amine], the IC50 amounted to 111 nM.

Turning to `COc1cc(C(=O)N2CC3CCC2[C@@H]3N)cc2nc(-c3cc4cccnc4n3CC3CC3)n(Cc3cnn(C)c3C)c12` (stereo partly drawn) [Example 486, (7R)-2-{2-[1-(cyclopropylmethyl)-1H-pyrrolo[2,3-b]pyridin-2-yl]-l-[(1,5-dimethyl-1H-pyrazol-4-yl)methyl]-7-methoxy-1H-1,3-benzodiazole-5-carbonyl}-2-azabicyclo[2.2.1]heptan-7-amine], the IC50 turned out to be 45 nM.

For `COc1cc(C(=O)N2CC3CCC2[C@@H]3N)cc2nc(-c3cc4ccccc4n3CC3CC3)n(CC3CN(C(=O)c4ccccc4C(=O)O)C3)c12` (stereo partly drawn) [Example 179, 2-[3-({5-[(1R,4R,7R)-7-amino-2-azabicyclo[2.2.1]heptane-2-carobnyl]-2-[1-(cyclopropylmethyl)-1H-indol-2-yl]-7-methoxy-1H-1,3-benzodiazol-1-yl}methyl)azetidine-1-carbonyl]benzoic acid], the IC50 was 93 nM.

For `COc1cc(C(=O)N2C[C@H](N)C[C@@H](F)C2)cc2nc(-c3cc4cccnc4n3CC3CC3)n(Cc3cnn(-c4cncc(F)c4)c3)c12` [Example 406, (3R,5R)-1-{2-[1-(cyclopropylmethyl)-1H-pyrrolo[2,3-b]pyridin-2-yl]-1-{[1-(5-fluoropyridin-3-yl)-1H-pyrazol-4-yl]methyl}-7-methoxy-1H-1,3-benzodiazole-5-carbonyl}-5-fluoropiperidin-3-amine], the IC50 was found to be 69 nM.

As to `COc1cc(C(=O)N2C[C@H]3CC[C@@H]2[C@@H]3N)cc2nc(-c3cc4cccnc4n3CC3CC3)n(CC3CN(c4ccnc(C)n4)C3)c12` [Example 16, (1R,4R,7R)-2-{2-[1-(cyclopropylmethyl)-1H-pyrrolo[2,3-b]pyridin-2-yl]-7-methoxy-1-{[1-(2-methylpyrimidin-4-yl)azetidin-3-yl]methyl}-1H-1,3-benzodiazole-5-carbonyl}-2-azabicyclo[2.2.1]heptan-7-amine], the IC50 was 48 nM.

On to `COc1cc(C(=O)N2C[C@H]3CC[C@@H]2[C@@H]3N)cc2nc(-c3cc4cccnc4n3CC3CC3)n(CC3CN(C(=O)c4ccnc(C)n4)C3)c12` [Example 119, (1R,4R,7R)-2-{2-[1-(cyclopropylmethyl)-1H-pyrrolo[2,3-b]pyridin-2-yl]-7-methoxy-1-{[1-(2-methylpyrimidine-4-carbonyl)azetidin-3-yl]methyl}-1H-1,3-benzodiazole-5-carbonyl}-2-azabicyclo[2.2.1]heptan-7-amine], for which the IC50 worked out at 69 nM.
